# In ChEMBL document CHEMBL1201862, “PubChem BioAssay data set” (2004):
# Calls of active or inactive are those of the source.
# How the values were obtained:
# [1] = growth inhibition of SK-MEL-5 melanoma cells – cell-based, CellTiter-Glo luminescence, dry powder, set 8, orthogonal assay for MITF inhibitor project, dose response (AID 651586); format: functional
# [2] = growth inhibition of MALME3 cells – cell-based, CellTiter-Glo luminescence, dry powder, set 5, orthogonal assay for MITF inhibitor project, dose response (AID 651584); format: functional; settings: MALME-3
# [3] = inhibitors of TRPM1-promoter reporter in SK-MEL-5 – cell-based, luciferase, dry powder, set 9, MITF inhibitor project, dose response (AID 651588); format: functional
# [4] = inhibitors of TRPM1-promoter reporter in SK-MEL-5 – cell-based, luciferase, dry powder, set 8, MITF inhibitor project, dose response (AID 624430); format: functional
# [5] = MITF Orthogonal Assay: SK-MEL-5 CTG Assay Measured in Cell-Based System Using Plate Reader - 2084-02_Inhibitor_Dose_DryPowder_Activity_Set7.; format: functional
# [6] = cytotoxicity in MITF-independent A375 cells – cell-based, CellTiter-Glo luminescence, dry powder, set 9, counter-screen for MITF modulator project, dose response (AID 651591); format: functional; settings: A-375
# [7] = MITF Orthogonal Assay: MALME3 CTG Assay Measured in Cell-Based System Using Plate Reader - 2084-04_Inhibitor_Dose_DryPowder_Activity_Set6.; format: functional; settings: MALME-3
# [8] = MITF: Counter assay: A375 proliferation Measured in Cell-Based System Using Plate Reader - 2084-03_Inhibitor_Dose_DryPowder_Activity_Set8.; format: functional; settings: A-375
# [9] = target: Protein Tat (Human immunodeficiency virus type 1 group M subtype B (isolate HXB2)(HIV-1), UniProt P04608); format: functional;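 also: tat binding to TAR RNA read out by fluorescence polarization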
# [10] = cytotoxicity toward HT-29 cells – cell-based, CellTiter-Glo luminescence, IC50, dose response (AID 1117330); format: functional
# [11] = Reduced DLD-1 viability, concentration-response, CellTiter-Glo luminescence (AID 1117352); format: functional
# [12] = cytotoxicity toward Colo320 cells – cell-based, CellTiter-Glo luminescence, IC50, dose response (AID 1117334); format: functional; settings: COLO 320
# [13] = HCT116 cell viability decrease, GSK3B pretreatment – CellTiter-Glo, IC50, dose response (AID 1117339); format: functional; settings: HCT-116
# [14] = SNU-C1 cell viability reduction, dose response, CellTiter-Glo luminescence (AID 1117323); format: functional, cell-based
# [15] = CellTiter-Glo luminescence survival assay, SW480 colon tumor line, concentration-response curve, half-maximal inhibitory concentration (AID 1117338); format: functional
# [16] = cytotoxicity toward HCT116 cells – cell-based, CellTiter-Glo luminescence, IC50, dose response (AID 1117332); format: functional; settings: HCT-116
# [17] = RKO cell viability reduction, dose response, CellTiter-Glo luminescence (AID 1117322); format: functional
# Sequence of Protein Tat (P04608 whole entry): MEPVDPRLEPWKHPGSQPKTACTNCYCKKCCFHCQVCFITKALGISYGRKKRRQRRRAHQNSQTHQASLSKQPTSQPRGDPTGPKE
compound,measurement,setting,value
O=C1C(Nc2ccc(Br)cc2)=C(N2CCCCC2)C(=O)c2ccccc21,AC50,[1],> 70 µM (inactive)
same,AC50,[2],15.7 µM (active)
same,AC50,[3],15.3 µM (active)
same,AC50,[4],4.44 µM (active)
same,AC50,[5],4.57 µM (active)
same,AC50,[6],32.8 µM (active)
same,AC50,[7],15.7 µM (active)
same,AC50,[8],47.2 µM (active)
CCSC1=C(C#N)C(c2cccs2)/C(=C(\O)OC)C(C)=N1 (configuration not stated),IC50,[9],> 100 µM (active)
CSc1ccc2c(c1)N(CCC1CCCCN1C)c1ccccc1S2 (configuration not stated) [THIORIDAZINE],IC50,[10],5.9 µM (inactive)
same,IC50,[11],> 20 µM (inactive)
same,IC50,[12],7.92 µM (inactive)
same,IC50,[13],8.11 µM (inactive)
same,IC50,[14],2.9 µM (active)
same,IC50,[15],3.71 µM (active)
same,IC50,[16],> 20 µM (inactive)
same,IC50,[17],5.49 µM (inactive)
